We go through 6 compounds from ChEMBL document CHEMBL6134913, “Novel Emopamil-Binding Protein Inhibitors for Treating Multiple Sclerosis” (ACS Med Chem Lett, 2025).

The target of the assay is 3-beta-hydroxysteroid-Delta(8),Delta(7)-isomerase (Homo sapiens, UniProt Q15125). As to the kind of experiment: Displacement of [3H]ifenprodil from FLAG-tagged EBP (unknown origin) overexpressing human Expi293F cells measured after 20 mins by Microbeta microplate counter. The assay is classed as cell-based.
3-beta-hydroxysteroid-Delta(8),Delta(7)-isomerase, sequence (Q15125 whole entry): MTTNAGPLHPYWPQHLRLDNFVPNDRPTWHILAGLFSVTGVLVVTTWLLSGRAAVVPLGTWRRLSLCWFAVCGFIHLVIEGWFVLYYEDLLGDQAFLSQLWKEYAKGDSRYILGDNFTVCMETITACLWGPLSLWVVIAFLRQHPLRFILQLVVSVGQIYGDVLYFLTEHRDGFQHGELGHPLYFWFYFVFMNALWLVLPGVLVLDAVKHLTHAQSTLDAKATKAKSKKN

As to `Cn1nc(-c2ccccc2)cc1S(=O)(=O)N1CC2(CN(C3CCOCC3)C2)C1`, the IC50 is less than 0.015 µM.
Take `Cn1nc(C2CCC2)cc1S(=O)(=O)N1CC2(CN(C3CCOCC3)C2)C1`: the IC50 is less than 0.015 µM.
The result for `Cc1cc(C(F)(F)F)nc(C)c1S(=O)(=O)N1CC2(CN(Cc3ccn(C)n3)C2)C1` reads less than 0.015 µM; that for `Cn1nc(C2CCCCC2)cc1S(=O)(=O)N1CC2(CN(C3CCOCC3)C2)C1`, less than 0.015 µM; that for `CCc1cnccc1CN1CC2(C1)CN(S(=O)(=O)c1ccc(C(F)(F)F)nc1C)C2`, less than 0.015 µM.
The result for `Cc1nc(C(F)(F)C(F)(F)F)ccc1S(=O)(=O)N1CC2(CN(C3CCOCC3)C2)C1` reads less than 0.015 µM.
